Our source for the TGI and GI50 values is PubChem BioAssay (NCI).

Structures are written as SMILES.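 Following 48 hours of exposure in 96-well plates, responses at five concentrations were used to interpolate endpoints linearly. GI50 marks 50% less growth. TGI: concentration producing complete growth inhibition.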

Test systems include HL-60(TB) leukemia; SR leukemia; SK-MEL-5 melanoma; SN12C renal; SK-OV-3 ovarian; HCT-15 colon; K-562 leukemia; SW-620 colon; A498 renal; UACC-257 melanoma.
Assay in all cases: inhibition of tumour cell growth, NCI panel, 48 h

Consider `O=C(NC(=O)c1cn(CCN2CCNCC2)c(=O)[nH]c1=O)OCc1ccccc1`, for which the TGI in the assay on HL-60(TB) leukemia, in the assay on SR leukemia, in the assay on SK-MEL-5 melanoma, with SN12C renal, with SK-OV-3 ovarian and with HCT-15 colon was above 100 µM each time. The TGI in the assay on K-562 leukemia and in the assay on SW-620 colon was above 100 µM throughout.
Regarding `CN(C)C(=S)Nc1nnc(NC23CC4CC(CC(C4)C2)C3)s1`, the TGI with HL-60(TB) leukemia was found to be 31.9 µM; with A498 renal, 37.3 µM; in the assay with SR leukemia, 57.9 µM; in the assay with SN12C renal it was 38.1 µM; in the assay on SK-OV-3 ovarian, 80.1 µM; in the assay with HCT-15 colon, 28.8 µM. The TGI in the assay with K-562 leukemia was above 100 µM; in the assay on SW-620 colon it was 38.3 µM; with UACC-257 melanoma, 32.5 µM.
As for `Nc1[nH]c(=O)nc2sc3c(c12)CCCC3`, the TGI with HL-60(TB) leukemia, with SR leukemia, in the assay on SK-MEL-5 melanoma, with SN12C renal, with SK-OV-3 ovarian and in the assay on HCT-15 colon was above 100 µM in each case. In addition, the TGI in the assay with K-562 leukemia, with SW-620 colon and in the assay on UACC-257 melanoma was above 100 µM in each case.
With `CSCCC(NC(=O)C(Cc1ccccc1)NC(=O)CNC(=O)CNC(=O)C(N)Cc1ccc(O)cc1)C(=O)O` (configuration not stated), the TGI in the assay on HL-60(TB) leukemia, in the assay with A498 renal, with SK-MEL-5 melanoma, with SN12C renal, in the assay on SK-OV-3 ovarian and in the assay on HCT-15 colon was above 100 µM in each case. Besides, the TGI with K-562 leukemia, in the assay on SW-620 colon and with UACC-257 melanoma was above 100 µM throughout.
`O=C1/C(=C/c2ccc(O)cc2)NC(=S)N1CN1CCCCC1`: the TGI with HL-60(TB) leukemia, in the assay on A498 renal, with SR leukemia, with SK-MEL-5 melanoma, in the assay on SN12C renal and in the assay on SK-OV-3 ovarian was above 100 µM throughout. The TGI in the assay on HCT-15 colon, with K-562 leukemia and in the assay on SW-620 colon was above 100 µM in each case.
With `COc1cc(Cn2c3c(c4c(CN(C)C)c(O)ccc42)C(=O)c2ccccc2C3=O)cc(OC)c1`, the TGI in the assay on HL-60(TB) leukemia is above 100 µM; in the assay on A498 renal, 22.4 µM; with SR leukemia it was 36.5 µM; in the assay on SK-MEL-5 melanoma it was 26 µM; in the assay with SN12C renal, 55.1 µM; in the assay with SK-OV-3 ovarian it was 48.3 µM. The TGI in the assay on HCT-15 colon amounted to 28.2 µM; in the assay on K-562 leukemia, 36.8 µM; with SW-620 colon, 38.5 µM; with UACC-257 melanoma it was 55.7 µM.
Regarding `CN(C)c1cccc(-c2cc(=O)c3ccccc3[nH]2)c1`, the TGI in the assay with HL-60(TB) leukemia was 74.6 µM; in the assay on SR leukemia, above 100 µM; with SN12C renal, above 100 µM; in the assay on SK-OV-3 ovarian, above 100 µM; with HCT-15 colon it was above 100 µM; with SW-620 colon it was above 100 µM. This molecule also yielded a TGI with UACC-257 melanoma above 100 µM.
`C=CCn1c2ccccc2c2c(C)c3cnccc3c(C)c21`: the TGI in the assay on HL-60(TB) leukemia is 11.9 µM; with A498 renal it was 49.8 µM; with SK-MEL-5 melanoma, 56.9 µM; with SN12C renal, above 66.2 µM; in the assay with SK-OV-3 ovarian, 38.5 µM; in the assay on HCT-15 colon, above 95.5 µM. Moreover, the TGI in the assay on K-562 leukemia came out at 52.2 µM; with SW-620 colon, 59.1 µM; with UACC-257 melanoma it was 41.9 µM.
`COC1/C=C\C=C(/C)C(=O)NC2=CC(=O)C=C(C2=O)C(OC)C(C)CC(OC)C(OC)C(C)/C=C(/C)C1OC(N)=O` (configuration not stated): the TGI in the assay on HL-60(TB) leukemia turned out to be 0.554 µM; with A498 renal it was 28.4 µM; in the assay on SK-MEL-5 melanoma, 20.9 µM; in the assay with SN12C renal, 19 µM; in the assay with SK-OV-3 ovarian, 27.8 µM; with HCT-15 colon it was 15.4 µM. The figures for the TGI in the assay on K-562 leukemia, with SW-620 colon and in the assay with UACC-257 melanoma were 1.44 µM, 2.8 µM and 19.6 µM, respectively.
For `C#CCNC(=O)CCC(N)C(=O)O` (configuration not stated), the TGI in the assay with HL-60(TB) leukemia, with A498 renal, in the assay on SK-MEL-5 melanoma, with SN12C renal, in the assay with SK-OV-3 ovarian and in the assay with HCT-15 colon was above 100 µM each time. Further, the TGI in the assay with K-562 leukemia, in the assay with SW-620 colon and in the assay on UACC-257 melanoma was above 100 µM throughout.
`CC(C)(O)[C@@H]1CCC(C)([C@H]2[C@@H](O)CC3(C)C4CC(OC5OC(CO)C(O)C(O)C5O)C5C(C)(C)[C@@H](OC6OCC(O)C(O)C6O)CC[C@@]56C[C@@]46CC[C@]23C)O1` (some centres not stated): the TGI in the assay on HL-60(TB) leukemia, with SR leukemia, in the assay with SK-MEL-5 melanoma, in the assay on SN12C renal, in the assay on SK-OV-3 ovarian and with HCT-15 colon was above 100 µM throughout. In addition, the TGI in the assay on K-562 leukemia, in the assay on SW-620 colon and in the assay with UACC-257 melanoma was above 100 µM each time.
As to `CCOC(=O)C(Cc1ccc2c(c1)CCC2)(Cc1ccc2c(c1)CCC2)C(=O)OCC`, the TGI was above 100 µM in the assay on HL-60(TB) leukemia; above 100 µM in the assay with A498 renal; 55.1 µM with SR leukemia; above 100 µM with SK-MEL-5 melanoma; above 100 µM with SK-OV-3 ovarian; above 100 µM in the assay with HCT-15 colon. In addition, the TGI in the assay on K-562 leukemia, with SW-620 colon and in the assay with UACC-257 melanoma was above 100 µM throughout.
With `CSc1ccc2c(c1)c(CCN)c(C)n2Cc1ccc(Cl)c(Cl)c1`, the results for the GI50 in the assay with SK-OV-3 ovarian and in the assay on UACC-257 melanoma were 1.69 µM and 2.03 µM, respectively. Also, the TGI is 3.09 µM with SK-OV-3 ovarian and 3.74 µM in the assay on UACC-257 melanoma.
Regarding `OC1CN(OC/C=C/c2ccccc2)CC(O)C1O` (configuration not stated), the TGI in the assay on HL-60(TB) leukemia, in the assay on A498 renal, with SK-MEL-5 melanoma, in the assay on SN12C renal, with SK-OV-3 ovarian and with HCT-15 colon was above 100 µM in each case. Moreover, the TGI in the assay with K-562 leukemia, in the assay with SW-620 colon and with UACC-257 melanoma was above 100 µM throughout.
With `O=C1C=C2S[C@H]3C[C@]2(C=C1Br)c1c(c(O)c2c4c1=NCCC=4C=N2)N3`, the TGI was 13.3 µM in the assay on A498 renal; above 100 µM in the assay with SR leukemia; 2.38 µM in the assay with SK-MEL-5 melanoma; 2.48 µM with SN12C renal; 17.1 µM in the assay on SK-OV-3 ovarian; 1.99 µM in the assay with HCT-15 colon. Besides, the TGI in the assay with SW-620 colon was 0.237 µM; in the assay with UACC-257 melanoma, 0.557 µM.
